From the supplement of paper PMC8149375

Key:
Settings in all cases: treatment: drug + dasatinib (fixed dose, not stated); 5 days
769-P [1] = experiment: GI50 of drug in presence of dasatinib; higher = less potent
Experimental: (§1)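 Primary HTS combination arm: 8 RCC cell lines treated with 8 doses (up to 10 uM) of each library drug plus a fixed dose of dasatinib (dose not stated) for 5 days; viability read by CellTiter-Glo and normalised to DMSO. GI50 was fitted with XLfit, AUC is the area under the dose-response curve, and minimum viability is the lowest fraction of DMSO viability across doses.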

786-O [2] = experiment: as above
Experimental: as §1

A498 [3] = experiment: as above
Experimental: as §1

ACHN [4] = experiment: as above
Experimental: as §1

CAKI-1 [5] = experiment: as above
Experimental: as §1

SN12C [6] = experiment: as above
Experimental: as §1

TK-10 [7] = experiment: as above
Experimental: as §1

UO-31 [8] = experiment: as above
Experimental: as §1

769-P [9] = experiment: minimum viability across doses, drug + dasatinib, relative to DMSO (fraction); higher = less growth inhibition
Experimental: as §1

786-O [10] = experiment: as above
Experimental: as §1

A498 [11] = experiment: as above
Experimental: as §1

ACHN [12] = experiment: as above
Experimental: as §1

CAKI-1 [13] = experiment: as above
Experimental: as §1

SN12C [14] = experiment: as above
Experimental: as §1

TK-10 [15] = experiment: as above
Experimental: as §1

UO-31 [16] = experiment: as above
Experimental: as §1

769-P [17] = experiment: AUC of dose-response viability curve, drug + dasatinib, normalised to DMSO (arbitrary (AUC of normalised viability)); higher = less growth inhibition
Experimental: as §1

786-O [18] = experiment: as above
Experimental: as §1

A498 [19] = experiment: as above
Experimental: as §1

ACHN [20] = experiment: as above
Experimental: as §1

CAKI-1 [21] = experiment: as above
Experimental: as §1

SN12C [22] = experiment: as above
Experimental: as §1

TK-10 [23] = experiment: as above
Experimental: as §1

UO-31 [24] = experiment: as above
Experimental: as §1

GI50 of drug (786-O [2]) [nM]	GI50 of drug (ACHN [4]) [nM]	Structure (SMILES)	GI50 of drug (769-P [1]) [nM]	GI50 of drug (A498 [3]) [nM]	GI50 of drug (CAKI-1 [5]) [nM]	GI50 of drug (SN12C [6]) [nM]	GI50 of drug (TK-10 [7]) [nM]	GI50 of drug (UO-31 [8]) [nM]	minimum viability across doses (769-P [9])	minimum viability across doses (786-O [10])	minimum viability across doses (A498 [11])	minimum viability across doses (ACHN [12])	minimum viability across doses (CAKI-1 [13])	minimum viability across doses (SN12C [14])	minimum viability across doses (TK-10 [15])	minimum viability across doses (UO-31 [16])	AUC of dose-response viability curve (769-P [17])	AUC of dose-response viability curve (786-O [18])	AUC of dose-response viability curve (A498 [19])	AUC of dose-response viability curve (ACHN [20])	AUC of dose-response viability curve (CAKI-1 [21])	AUC of dose-response viability curve (SN12C [22])	AUC of dose-response viability curve (TK-10 [23])	AUC of dose-response viability curve (UO-31 [24])
884	796	N#CCNC(=O)c1ccc(-c2ccnc(Nc3ccc(N4CCOCC4)cc3)n2)cc1 [Cyt387] + Cc1nc(Nc2ncc(C(=O)Nc3c(C)cccc3Cl)s2)cc(N2CCN(CCO)CC2)n1 [dasatinib]	2110	> 10000	325	2910	1630	2550	0.125	0.0246	0.897	0.0607	0.0305	0.271	0.0961	0.00938	2.24	1.73	3.6	1.72	1.83	2.27	2.14	2.78
293	499	CNC(=O)c1cc(Oc2ccc(NC(=O)Nc3cc(C(C)(C)C)nn3-c3ccc4ncccc4c3)c(F)c2)ccn1 [DCC-2036 (Rebastinib)] + Cc1nc(Nc2ncc(C(=O)Nc3c(C)cccc3Cl)s2)cc(N2CCN(CCO)CC2)n1 [dasatinib]	1540	4420	125	319	1330	1100	0.185	0.208	0.0121	0.0458	0.053	0.0277	0.0566	0.00958	2.21	1.88	3.51	1.71	1.54	1.87	2.29	2.84
4070	44.8	CN1CCN(c2ccc3nc(-c4c(N)c5c(F)cccc5[nH]c4=O)[nH]c3c2)CC1 [Dovitinib (TKI-258)] + Cc1nc(Nc2ncc(C(=O)Nc3c(C)cccc3Cl)s2)cc(N2CCN(CCO)CC2)n1 [dasatinib]	1410	2330	148	266	1890	697	0.0592	0.263	0.239	0.14	0.0724	0.0733	0.277	0.0928	2.06	2.58	2.49	1.38	1.5	1.6	2.33	2.36
3480	11.7	CC(O)C(=O)O.CC(O)C(=O)O.CN1CCN(c2ccc3nc(-c4c(N)c5c(F)cccc5[nH]c4=O)[nH]c3c2)CC1 [Dovitinib Dilactic acid (TKI258 Dilactic acid)] + Cc1nc(Nc2ncc(C(=O)Nc3c(C)cccc3Cl)s2)cc(N2CCN(CCO)CC2)n1 [dasatinib]	1750	4270	98.2	352	1070	1320	0.0213	0.139	0.303	0.0981	0.0435	0.0502	0.289	0.124	2.2	2.64	3.14	0.989	1.45	1.8	2.12	3.44
> 10000	1260	COc1cc2nccc(Oc3ccc(NC(=O)NC4CC4)c(Cl)c3)c2cc1C(N)=O [E7080 (Lenvatinib)] + Cc1nc(Nc2ncc(C(=O)Nc3c(C)cccc3Cl)s2)cc(N2CCN(CCO)CC2)n1 [dasatinib]	4520	> 10000	431	> 10000	> 10000	7260	0.321	0.674	0.795	0.247	0.0901	0.312	0.682	0.338	2.26	2.62	3.47	1.96	1.81	2.22	2.65	1.8
439	77.4	Cc1cc(Nc2cc(N3CCN(C)CC3)nc(/C=C/c3ccccc3)n2)n[nH]1.O=C(O)[C@H](O)[C@@H](O)C(=O)O [ENMD-2076] + Cc1nc(Nc2ncc(C(=O)Nc3c(C)cccc3Cl)s2)cc(N2CCN(CCO)CC2)n1 [dasatinib]	1000	1270	194	400	396	886	0.131	0.0877	0.247	0.0393	0.00949	0.0567	0.164	0.0131	1.92	1.78	2.4	1.32	1.4	1.81	1.91	2.5
8920	206	C#Cc1cccc(Nc2ncnc3cc(OCCOC)c(OCCOC)cc23)c1.Cl [Erlotinib HCl] + Cc1nc(Nc2ncc(C(=O)Nc3c(C)cccc3Cl)s2)cc(N2CCN(CCO)CC2)n1 [dasatinib]	440	> 10000	1060	> 10000	2440	5540	0.234	0.469	0.718	0.114	0.125	0.589	0.37	0.249	1.94	2.65	3.48	1.73	1.97	2.54	2.4	3.03
34.9	24.5	CN1CC[C@H](c2c(O)cc(O)c3c(=O)cc(-c4ccccc4Cl)oc23)[C@H](O)C1.Cl [Flavopiridol hydrochloride] + Cc1nc(Nc2ncc(C(=O)Nc3c(C)cccc3Cl)s2)cc(N2CCN(CCO)CC2)n1 [dasatinib]	86	171	33.6	106	119	252	0.0135	0.00472	0.0115	0.00412	0.0304	0.00632	0.168	0.00894	1.34	0.837	1.74	0.849	1.02	1.28	1.53	1.98
24.5	6.5	CC(C)NC[C@@H](C(=O)N1CCN(c2ncnc3c2[C@H](C)C[C@H]3O)CC1)c1ccc(Cl)cc1 [GDC-0068] + Cc1nc(Nc2ncc(C(=O)Nc3c(C)cccc3Cl)s2)cc(N2CCN(CCO)CC2)n1 [dasatinib]	> 10000	> 10000	1750	> 10000	1190	4910	0.628	0.21	0.74	0.247	0.311	0.563	0.292	0.0701	2.59	1.4	3.38	1.43	2.12	2.39	2.07	4.11
> 10000	4230	OCCn1cc(-c2ccc3c(c2)CC/C3=N\O)c(-c2ccncc2)n1 [GDC-0879] + Cc1nc(Nc2ncc(C(=O)Nc3c(C)cccc3Cl)s2)cc(N2CCN(CCO)CC2)n1 [dasatinib]	> 10000	> 10000	> 10000	> 10000	> 10000	> 10000	0.605	0.568	0.804	0.354	0.738	0.686	0.716	0.894	2.36	2.39	3.55	2.12	2.86	2.62	3.05	3.45
225	82.6	CS(=O)(=O)N1CCN(Cc2cc3nc(-c4cccc5[nH]ncc45)nc(N4CCOCC4)c3s2)CC1 [GDC-0941] + Cc1nc(Nc2ncc(C(=O)Nc3c(C)cccc3Cl)s2)cc(N2CCN(CCO)CC2)n1 [dasatinib]	234	3090	111	386	302	172	0.111	0.00743	0.319	0.163	0.0678	0.235	0.171	0.0152	1.73	1.81	2.56	1.55	1.48	1.96	1.93	1.71
81.1	25.5	Cc1c(CN2CCN(C(=O)[C@H](C)O)CC2)sc2c(N3CCOCC3)nc(-c3cnc(N)nc3)nc12 [GDC-0980 (RG7422)] + Cc1nc(Nc2ncc(C(=O)Nc3c(C)cccc3Cl)s2)cc(N2CCN(CCO)CC2)n1 [dasatinib]	80.4	658	102	119	103	268	0.0451	0.00396	0.17	0.0521	0.02	0.0934	0.0374	0.00909	1.44	1.47	2.4	1.12	1.36	1.45	1.47	2.18
434	368	CN1CCN(C2CCN(C(=O)Nc3cc(Oc4ccc(NC(=O)C5(C(=O)Nc6ccc(F)cc6)CC5)c(F)c4)ccn3)CC2)CC1 [Golvatinib (E7050)] + Cc1nc(Nc2ncc(C(=O)Nc3c(C)cccc3Cl)s2)cc(N2CCN(CCO)CC2)n1 [dasatinib]	3670	9520	541	1620	886	3090	0.131	0.0302	0.335	0.0563	0.0248	0.191	0.154	0.0151	2.3	1.93	3.93	1.63	1.89	2.19	2.09	4.48
